Assays:
HT-22 = experiment: Cytotoxicity against mouse HT-22 cells assessed as cell viability at 1.25 to 5 uM incubated for 24 hrs by CCK8 assay; type: toxicity, cell-based; conditions: ht-22, 24 h, dose 1.25-5 µM
N2a [1] = experiment: Cytotoxicity against mouse Neuro2a cells assessed as cell viability at 1.25 to 5 uM incubated for 24 hrs by CCK8 assay; type: toxicity, cell-based; conditions: dose 1.25-5 µM
N2a [2] = experiment: Induction of neuronal differentiation in mouse Neuro2a cells assessed as neurite formation at 5 uM incubated for 48 hrs by DAPI staining based fluorescence microscopic analysis; type: functional, cell-based
N2a [3] = experiment: Induction of neuronal differentiation in mouse Neuro2a cells assessed as neurite elongation at 5 uM incubated for 48 hrs by DAPI staining based fluorescence microscopic analysis; type: functional, cell-based

| SMILES | Activity (HT-22) | further results |
| --- | --- | --- |
| O=C1c2c(O)cc(O[C@@H]3O[C@H](CO)[C@@H](O)[C@H](O)[C@H]3O)cc2O[C@]1(O)Cc1ccc(O)cc1 | Non-toxic |  |
| O=C(O)C1=CC[C@@H]2C(C(=O)O)=CO[C@@H](O[C@@H]3O[C@H](CO)[C@@H](O)[C@H](O)[C@H]3O)[C@H]12 [IXOSIDE] | Non-toxic |  |
| C[C@](O)(CC(=O)O)CC(=O)OC[C@H]1O[C@@H](OCc2ccccc2)[C@H](O)[C@@H](O)[C@@H]1O | Non-toxic |  |
| C[C@@H]1O[C@@H](Oc2ccc(CNC(=S)NCc3ccc(O[C@@H]4O[C@@H](C)[C@H](O)[C@@H](O)[C@H]4O)cc3)cc2)[C@H](O)[C@H](O)[C@H]1O | Non-toxic |  |
| C=C(c1[nH]c2ccccc2c1CN1C/C(=C/C)[C@@H]2CC(=O)c3[nH]c4ccccc4c3C[C@H]1C2C(=O)OC)[C@H]1CCN(C)C/C1=C\C (stereo partly specified) | Non-toxic | Activity (N2a [1]): Toxic; Activity (N2a [2]): Active; Significant Efficacy Observed; Activity (N2a [3]): Active; Significant Efficacy Observed |
| C[C@@H]1CC[C@]2(C(=O)O)CC[C@]3(C)C(=CC[C@@H]4[C@@]5(C)CC[C@H](O[C@@H]6O[C@H](C(=O)O)[C@@H](O)[C@H](OS(=O)(=O)O)[C@H]6O)[C@@](C)(CO)[C@@H]5CC[C@]43C)[C@@H]2[C@]1(C)O | Non-toxic |  |
| O=c1c(O[C@@H]2O[C@H](CO)[C@@H](O)[C@H](O)[C@H]2O)c(-c2ccc(O)c(O)c2)oc2cc(O)cc(O)c12 [ISOQUERCETIN] | Non-toxic | Activity (N2a [1]): Toxic; Activity (N2a [2]): Active; Significant Efficacy Observed; Activity (N2a [3]): Active; Significant Efficacy Observed |
| COC(=O)[C@@H](Cc1ccc(O)c(O)c1)OC(=O)/C=C/c1ccc(OC)c(O)c1 | Non-toxic |  |
| COc1ccc([C@@H]2c3cc(OC)c(O)cc3C[C@@H](C)[C@H]2C)cc1O | Non-toxic |  |
| C=C[C@H]1[C@H](O[C@@H]2O[C@H](CO)[C@@H](O)[C@H](O)[C@H]2O)OC=C(C(=O)O)[C@H]1CC(=O)O | Non-toxic |  |
| O=C1c2c(O)cc(O)cc2O[C@H](c2cc(O)cc(O)c2)[C@H]1O | Non-toxic |  |
| CC[C@H](CC[C@@H](C)[C@H]1CC[C@H]2[C@@H]3CC=C4C[C@@H](O[C@@H]5O[C@H](CO)[C@@H](O)[C@H](O)[C@H]5O)CC[C@]4(C)[C@H]3CC[C@]12C)C(C)C [SITOGLUSIDE] | Non-toxic |  |
| COc1cc(O)c(C(=O)CC(C)C)c2c1[C@@H]1C[C@H](C(C)C)C=C[C@]1(C)O2 | Non-toxic |  |
| O=c1cc(-c2ccccc2)oc2cc(O[C@@H]3O[C@H](CO[C@@H]4O[C@H](CO)[C@@H](O)[C@H](O)[C@H]4O)[C@@H](O)[C@H](O)[C@H]3O)c(O)c(O)c12 | Non-toxic |  |
| C[N+](C)(C)[C@H](Cc1c[nH]c2ccccc12)C(=O)[O-] [HYPAPHORINE] | Non-toxic |  |
| C[C@@H]1O[C@@H](OC[C@H]2O[C@@H](Oc3c(-c4ccc(O)cc4)oc4cc(O)cc(O)c4c3=O)[C@H](O)[C@@H](O)[C@@H]2O)[C@H](O)[C@H](O)[C@H]1O [NICOTIFLOROSIDE] | Non-toxic |  |
| OC[C@H]1O[C@@H](Oc2c(O)cc(O)cc2[C@@H]2[C@@H](c3ccc(O)cc3)[C@H](c3ccc(O)cc3)[C@H]2c2cc(O)cc(O)c2O[C@@H]2O[C@H](CO)[C@@H](O)[C@H](O)[C@H]2O)[C@H](O)[C@@H](O)[C@@H]1O | Non-toxic |  |
| COc1cc([C@H](O)[C@H](CO)Oc2c(OC)cc([C@H](O)[C@H](O)CO)cc2OC)ccc1O (mixture of isomers) | Non-toxic |  |
| COc1cc([C@@H]2Oc3c(OC)cc(CCCO[C@@H]4O[C@H](CO)[C@@H](O)[C@H](O)[C@H]4O)cc3[C@H]2CO)ccc1O | Non-toxic |  |
| COc1cc2oc(-c3ccc(O)cc3)cc(=O)c2c(O)c1[C@@H]1O[C@H](CO)[C@@H](O)[C@H](O)[C@H]1O[C@@H]1O[C@H](CO)[C@@H](O)[C@H](O)[C@H]1O | Non-toxic |  |
| O=c1c(-c2ccc(O)cc2)coc2c([C@@H]3O[C@H](CO)[C@@H](O)[C@H](O)[C@H]3O)c(O)ccc12 [PUERARIN] | Non-toxic |  |
| O[C@H]1CC[C@H]2CN3CCc4c([nH]c5ccccc45)[C@@H]3C[C@@H]2C1 | Non-toxic |  |
| O=C(O)[C@H]1O[C@@H](O[C@@H]2[C@@H](O)[C@H](O)[C@@H](CO)O[C@H]2c2c(O)cc3oc(-c4ccc(O)c(O)c4)cc(=O)c3c2O)[C@H](O)[C@@H](O)[C@H]1O | Non-toxic |  |
| O=C(O)[C@H]1O[C@@H](O[C@@H]2[C@@H](O)[C@@H](O)CO[C@H]2c2c(O)cc3oc(-c4ccc(O)c(O)c4)cc(=O)c3c2O)[C@H](O)[C@@H](O)[C@H]1O | Non-toxic |  |
| CC1=CC(=O)C[C@](C)(CO[C@@H]2O[C@H](CO)[C@@H](O)[C@H](O)[C@H]2O)[C@@]1(O)/C=C/C(C)=C/C(=O)O | Non-toxic |  |

— ChEMBL document CHEMBL6103668, “In-Silico Screening-Based Discovery of New Natural eEF2K Inhibitors with Neuritogenic Activity” (ACS Med Chem Lett, 2025)
